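Grown in 96-well plates, cells were treated for 48 hours with each compound at five concentrations. Insufficient inhibition: endpoint recorded as highest concentration tested. Abbreviation: GI50, concentration required for 50% inhibition of growth. Definition used: TGI = concentration required for complete inhibition of growth.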
Assays:
Test in all cases: NCI tumour cell line growth inhibition, 48 h
[1] = tested on: ACHN renal
[2] = tested on: K-562 leukemia
[3] = tested on: M14 melanoma
[4] = tested on: SF-268 CNS
[5] = tested on: MCF7 breast
[6] = tested on: SNB-19 CNS
[7] = tested on: HOP-62 NSCLC
[8] = tested on: NCI/ADR-RES ovarian
[9] = tested on: CCRF-CEM leukemia
[10] = tested on: EKVX NSCLC

Compound	GI50 [1] [µM]	TGI [1] [µM]	GI50 [2] [µM]	TGI [2] [µM]	GI50 [3] [µM]	TGI [3] [µM]	GI50 [4] [µM]	TGI [4] [µM]	GI50 [5] [µM]	TGI [5] [µM]	GI50 [6] [µM]	TGI [6] [µM]	GI50 [7] [µM]	TGI [7] [µM]	GI50 [8] [µM]	TGI [8] [µM]	GI50 [9] [µM]	TGI [9] [µM]	GI50 [10] [µM]	TGI [10] [µM]
Cn1c(=O)c(Oc2ccc(F)cc2F)cc2cnc(N[C@@H]3CCOC3)nc21	> 25	> 25	> 25	> 25	> 25	> 25	> 25	> 25	> 25	> 25	> 25	> 25	> 25	> 25	> 25	> 25	> 25	> 25	–	–
CCC(=O)N1C/C(=C/c2ccc(Br)cc2)C(=O)/C(=C/c2ccc(Br)cc2)C1	0.694	1.87	0.183	6.1	0.885	2.7	0.902	3.06	0.271	1.56	0.995	2.9	0.259	0.829	1.36	32.8	0.88	4.6	–	–
Cn1cc(C2=C(c3cn(CCCN)c4ccccc34)C(=O)NC2=O)c2ccccc21	5.53	19.7	4.29	14.6	4.38	8.6	5.33	12.8	3.55	10.4	7.89	24.9	6.09	17	10.8	> 25	2.59	12.1	–	–
O=C(Nc1cc(F)c(F)cc1C(=O)O)c1ccc(-n2ccnc2)nn1	> 100	> 100	80.5	> 100	> 100	> 100	> 100	> 100	> 100	> 100	> 100	> 100	> 100	> 100	> 100	> 100	98.2	> 100	> 100	> 100
O=C1Cc2cc(CCn3cncn3)c(Cl)cc2N1	> 100	> 100	7.68	> 100	3.98	> 100	59.6	> 100	4.02	> 100	70.7	> 100	29.9	> 100	5.85	> 100	3.5	> 100	0.825	> 100
CCCCCCCCCCNCCSS(=O)(=O)O	10.1	25.4	2.61	7.28	0.425	2.64	1.22	2.52	1.81	3.38	1.72	3.24	1.86	3.58	2.11	4.37	1.86	3.98	4.14	19.2
OC1CCCC2CCC[N-]C12.OC1CCCC2CCC[N-]C12.[O]=[V][OH] (stereo not drawn)	8.21	> 100	1.93	14.4	2.92	14.9	4.04	> 100	2.87	10.1	53.1	> 100	7.15	> 100	2.82	15.1	0.493	12.2	3.62	22.8
N#Cc1nc(C#N)c(Sc2ccccc2)c(Sc2ccccc2)c1Sc1ccccc1	0.395	1.79	1.55	> 29.9	–	–	0.331	1.03	0.565	2.41	2.5	5.9	–	> 20	0.504	> 100	0.417	> 100	1.25	> 100
O=C(Nc1cc(Cl)ccc1O)c1ccccc1Nc1ccnc(C(F)(F)F)c1	3.35	> 100	3.65	> 100	2.62	8.71	3.13	13.2	2.75	11.6	2.88	10.3	2.16	5.21	3.06	9.29	3.12	9.63	2.92	10.4
CCC(C)C1=C(O)[N+]2([O-])Oc3ccc(C4=C(O)C(=O)C(c5ccc(O)cc5)=C(O)C4=O)cc3OC2(C(C)CC)C(=O)N1O (stereo not drawn)	11.6	> 100	8.03	> 100	2.75	11.5	5.83	> 100	4.25	> 100	4.95	83.6	9.94	> 100	7.86	> 100	13.1	76.7	23.7	> 100
COc1cc2c(c(OC)c1OC)-c1ccc(SC)c(=O)cc1[C@@H](NC(=O)C(F)(F)F)CC2	–	> 72.3	–	> 85.2	–	42.5	–	63.9	–	> 82.2	–	> 100	–	> 100	–	79.9	–	> 100	–	> 100
CNC(=O)c1c(F)cccc1Nc1nc(Nc2cc3c(cc2OC)CCN3C(=O)CN(C)C)nc2[nH]ccc12	8.8	23.1	2.58	6.41	1.64	3.37	5.44	15.2	0.359	2.88	7.04	> 62.8	5.5	20.8	9.69	> 61.5	2.1	5.73	–	–
CCCc1nc(Cl)c(Cl)c(Cl)n1	–	–	–	> 45.9	–	> 76.1	–	33.4	–	> 78.6	–	> 96.4	–	> 83.4	–	> 100	–	> 44.2	–	43.7
